≈ marks a conversion by molar mass, not a printed value. Like-named read-outs stand apart in the source and are kept apart here.
Tests used:
[1] = tested on: bacterial inoculum; assay: Evaluation of biocides: inhibition of growth on FT diesel and ALAD diesel; format: cell-based, alkane degrading organisms; note: key: −: No Growth; +: Growth (White Unless Otherwise Indicated)
Procedure: The ability of biocides to inhibit growth on a FT diesel and a low aromatics diesel fuel from Example 1 was investigated.
Test Conditions: 90 ml of growth media and 10 ml of either FT diesel or low sulfur (ALAD) diesel was added to 250 ml flasks. […] In addition to the 2 alkynes, glutaraldehyde (glutaric dialdehyde 50%), was tested. The following summarizes the test conditions:
100 ppm inhibitor (on a total test volume basis or 1000 ppm in diesel)
1% inhibitor (on a total test volume basis or 10% in diesel).
After inoculation, the flasks were place on a shaker-table (135 rpm) at room temperature and observed daily.

[2] = tested on: bacteria; assay: Neutralization of biocides - H2O2 and NH4Cl; format: cell-based; settings: for microbial growth: after 14 days, 1, 10 or 100 ppm glutaraldehyde mixed with five times molar excess of the agent; for neutralizing biocides (glutaraldehyde): five times molar excess over 1, 10 or 100 ppm glutaraldehyde
Procedure: In this experiment, minimal medium containing 1, 10 or 100 ppm of glutaraldehyde was mixed with a five times molar excess of H2O2 or NH4Cl. Hydrocarbonaceous product and bacteria were then added to the mixture.

[3] = tested on: bacterial inoculum; format: cell-based; settings: for Growth, nitrogen compound control: control without glutaraldehyde; for Growth, nitrogen compound control / Growth, Neutralization of Biocides with Nitrogen Compounds: n-C16; for Growth, Neutralization of Biocides with Nitrogen Compounds: with 10 ppm glutaraldehyde, two moles nitrogen compound per glutaraldehyde; for neutralizing 10 ppm of glutaraldehyde: two moles per glutaraldehyde
From the text: The different nitrogen-containing compounds evaluated include the following: […]

[4] = in vivo; settings: Cyprinodon variegatus (sheepshead minnow, larval), 96 h, control experiment, separate compounds
Procedure: (§1) […]. EPA/600/4-90/027F Washington, D.C.) conducted at Pacific Eco-Risk Laboratories, Martinez, Calif.
(§2) LOEC is the Lowest Observable Effect Concentration and is defined as the minimum concentration where mortality is observed for the test species. […] LC-50, the concentration that will cause mortality of 50% of the organisms tested within 96 h, is a calculated value based on all observations.
(§3) The solutions were mixed for 48 hours prior to the start of the bioassays. The solutions were diluted to perform bioassays at starting glutaraldehyde concentrations of 100, 50, 37.5, 25, and 10.5 mg/L. The results are summarized in Table X.

[5] = tested on: Larval Sheepshead Minnow (Cyprinodon variegatus); assay: in vivo; settings: Cyprinodon variegatus (sheepshead minnow), 96 h
Procedure: as §1, §2, §3

[6] = FT Diesel + 1 Wt % biocide, Day 0
[7] = FT Diesel + 1 Wt % biocide, Day 1
[8] = FT Diesel + 1 Wt % biocide, Day 5
[9] = FT Diesel + 1 Wt % biocide, Day 7
[10] = FT Diesel + 1 Wt % biocide, Day 8
[11] = FT Diesel + 1 Wt % biocide, Day 19
[12] = FT Diesel + 100 ppm biocide, Day 0
[13] = FT Diesel + 100 ppm biocide, Day 1
[14] = FT Diesel + 100 ppm biocide, Day 5
[15] = FT Diesel + 100 ppm biocide, Day 7
[16] = FT Diesel + 100 ppm biocide, Day 8
[17] = FT Diesel + 100 ppm biocide, Day 19
[18] = LA Diesel + 1 Wt % biocide, Day 0
[19] = LA Diesel + 1 Wt % biocide, Day 1
[20] = LA Diesel + 1 Wt % biocide, Day 5
[21] = LA Diesel + 1 Wt % biocide, Day 7
[22] = LA Diesel + 1 Wt % biocide, Day 8
[23] = LA Diesel + 1 Wt % biocide, Day 19
[24] = LA Diesel + 100 ppm biocide, Day 0
[25] = LA Diesel + 100 ppm biocide, Day 1
[26] = LA Diesel + 100 ppm biocide, Day 5
[27] = LA Diesel + 100 ppm biocide, Day 7
[28] = LA Diesel + 100 ppm biocide, Day 8
[29] = LA Diesel + 100 ppm biocide, Day 19

C#CCCCC [H, 1-hexyne]
Growth, Test Results on Fischer-Tropsch Diesel Fuel [1, 6]: −
Growth, Test Results on Fischer-Tropsch Diesel Fuel [1, 7]: −
Growth, Test Results on Fischer-Tropsch Diesel Fuel [1, 8]: −
Growth, Test Results on Fischer-Tropsch Diesel Fuel [1, 9]: −
Growth, Test Results on Fischer-Tropsch Diesel Fuel [1, 10]: −
Growth, Test Results on Fischer-Tropsch Diesel Fuel [1, 11]: −
Growth, Test Results on Fischer-Tropsch Diesel Fuel [1, 12]: −
Growth, Test Results on Fischer-Tropsch Diesel Fuel [1, 13]: −
Growth, Test Results on Fischer-Tropsch Diesel Fuel [1, 14]: +
Growth, Test Results on Fischer-Tropsch Diesel Fuel [1, 15]: +
Growth, Test Results on Fischer-Tropsch Diesel Fuel [1, 16]: +
Growth, Test Results on Fischer-Tropsch Diesel Fuel [1, 17]: +
Growth, Test Results on ALAD Diesel Fuel [1, 18]: −
Growth, Test Results on ALAD Diesel Fuel [1, 19]: −
Growth, Test Results on ALAD Diesel Fuel [1, 20]: −
Growth, Test Results on ALAD Diesel Fuel [1, 21]: −
Growth, Test Results on ALAD Diesel Fuel [1, 22]: −
Growth, Test Results on ALAD Diesel Fuel [1, 23]: −
Growth, Test Results on ALAD Diesel Fuel [1, 24]: −
Growth, Test Results on ALAD Diesel Fuel [1, 25]: −
Growth, Test Results on ALAD Diesel Fuel [1, 26]: +
Growth, Test Results on ALAD Diesel Fuel [1, 27]: +
Growth, Test Results on ALAD Diesel Fuel [1, 28]: +
Growth, Test Results on ALAD Diesel Fuel [1, 29]: +

Cl.N [NH4Cl]
microbial growth [2]: no growth
neutralizing biocides (glutaraldehyde) [2]: not effective

Nc1ccccc1 [aniline, Aniline]
toxicity of the nitrogen-containing compound itself (microbial growth) [3]: excessively toxic
Growth, nitrogen compound control ([3]; Time 0 days): −
Growth, nitrogen compound control ([3]; Time 1 days): −
Growth, nitrogen compound control ([3]; Time 2 days): −
Growth, nitrogen compound control ([3]; Time 6 days): −
Growth, nitrogen compound control ([3]; Time 7 days): −
Growth, nitrogen compound control ([3]; Time 9 days): −
Growth, nitrogen compound control ([3]; Time 13 days): −
Growth, nitrogen compound control ([3]; Time 20 days): −
Growth, Neutralization of Biocides with Nitrogen Compounds ([3]; Time 0 days): −
Growth, Neutralization of Biocides with Nitrogen Compounds ([3]; Time 1 days): −
Growth, Neutralization of Biocides with Nitrogen Compounds ([3]; Time 2 days): −
Growth, Neutralization of Biocides with Nitrogen Compounds ([3]; Time 6 days): −
Growth, Neutralization of Biocides with Nitrogen Compounds ([3]; Time 7 days): −
Growth, Neutralization of Biocides with Nitrogen Compounds ([3]; Time 9 days): −
Growth, Neutralization of Biocides with Nitrogen Compounds ([3]; Time 13 days): −
Growth, Neutralization of Biocides with Nitrogen Compounds ([3]; Time 20 days): −

C#CCO [P, Propargyl alcohol]
Growth, Test Results on Fischer-Tropsch Diesel Fuel [1, 6]: −
Growth, Test Results on Fischer-Tropsch Diesel Fuel [1, 7]: −
Growth, Test Results on Fischer-Tropsch Diesel Fuel [1, 8]: −
Growth, Test Results on Fischer-Tropsch Diesel Fuel [1, 9]: −
Growth, Test Results on Fischer-Tropsch Diesel Fuel [1, 10]: −
Growth, Test Results on Fischer-Tropsch Diesel Fuel [1, 11]: −
Growth, Test Results on Fischer-Tropsch Diesel Fuel [1, 12]: −
Growth, Test Results on Fischer-Tropsch Diesel Fuel [1, 13]: −
Growth, Test Results on Fischer-Tropsch Diesel Fuel [1, 14]: −
Growth, Test Results on Fischer-Tropsch Diesel Fuel [1, 15]: +
Growth, Test Results on Fischer-Tropsch Diesel Fuel [1, 16]: +
Growth, Test Results on Fischer-Tropsch Diesel Fuel [1, 17]: +
Growth, Test Results on ALAD Diesel Fuel [1, 18]: −
Growth, Test Results on ALAD Diesel Fuel [1, 19]: −
Growth, Test Results on ALAD Diesel Fuel [1, 20]: −
Growth, Test Results on ALAD Diesel Fuel [1, 21]: −
Growth, Test Results on ALAD Diesel Fuel [1, 22]: −
Growth, Test Results on ALAD Diesel Fuel [1, 23]: −
Growth, Test Results on ALAD Diesel Fuel [1, 24]: −
Growth, Test Results on ALAD Diesel Fuel [1, 25]: −
Growth, Test Results on ALAD Diesel Fuel [1, 26]: + Yellow
Growth, Test Results on ALAD Diesel Fuel [1, 27]: + Yellow
Growth, Test Results on ALAD Diesel Fuel [1, 28]: + Yellow
Growth, Test Results on ALAD Diesel Fuel [1, 29]: + Yellow

NCCO [MEA, Monoethanolamine]
LC50 at 96 h [4]: 1500 µg/mL (≈ 24.6 mM)
LOEC [5]: 1700 mg/L
NOEC [5]: 1000 mg/L
Growth, nitrogen compound control ([3]; Time 0 days): −
Growth, nitrogen compound control ([3]; Time 1 days): −
Growth, nitrogen compound control ([3]; Time 2 days): −
Growth, nitrogen compound control ([3]; Time 6 days): −
Growth, nitrogen compound control ([3]; Time 7 days): +
Growth, nitrogen compound control ([3]; Time 9 days): +
Growth, nitrogen compound control ([3]; Time 13 days): +
Growth, nitrogen compound control ([3]; Time 20 days): +
neutralizing 10 ppm of glutaraldehyde [3]: effective
Growth, Neutralization of Biocides with Nitrogen Compounds ([3]; Time 0 days): −
Growth, Neutralization of Biocides with Nitrogen Compounds ([3]; Time 1 days): −
Growth, Neutralization of Biocides with Nitrogen Compounds ([3]; Time 2 days): −
Growth, Neutralization of Biocides with Nitrogen Compounds ([3]; Time 6 days): +
Growth, Neutralization of Biocides with Nitrogen Compounds ([3]; Time 7 days): +
Growth, Neutralization of Biocides with Nitrogen Compounds ([3]; Time 9 days): +
Growth, Neutralization of Biocides with Nitrogen Compounds ([3]; Time 13 days): +
Growth, Neutralization of Biocides with Nitrogen Compounds ([3]; Time 20 days): +

OCCNCCO [DEA, Diethanolamine]
Growth, nitrogen compound control ([3]; Time 0 days): −
Growth, nitrogen compound control ([3]; Time 1 days): −
Growth, nitrogen compound control ([3]; Time 2 days): −
Growth, nitrogen compound control ([3]; Time 6 days): +
Growth, nitrogen compound control ([3]; Time 7 days): +
Growth, nitrogen compound control ([3]; Time 9 days): +
Growth, nitrogen compound control ([3]; Time 13 days): +
Growth, nitrogen compound control ([3]; Time 20 days): −
neutralizing 10 ppm of glutaraldehyde [3]: effective
Growth, Neutralization of Biocides with Nitrogen Compounds ([3]; Time 0 days): −
Growth, Neutralization of Biocides with Nitrogen Compounds ([3]; Time 1 days): +
Growth, Neutralization of Biocides with Nitrogen Compounds ([3]; Time 2 days): +
Growth, Neutralization of Biocides with Nitrogen Compounds ([3]; Time 6 days): +
Growth, Neutralization of Biocides with Nitrogen Compounds ([3]; Time 7 days): +
Growth, Neutralization of Biocides with Nitrogen Compounds ([3]; Time 9 days): +
Growth, Neutralization of Biocides with Nitrogen Compounds ([3]; Time 13 days): +
Growth, Neutralization of Biocides with Nitrogen Compounds ([3]; Time 20 days): +

CCNCC [diethylamine, Diethylamine]
Growth, nitrogen compound control ([3]; Time 0 days): −
Growth, nitrogen compound control ([3]; Time 1 days): −
Growth, nitrogen compound control ([3]; Time 2 days): −
Growth, nitrogen compound control ([3]; Time 6 days): +
Growth, nitrogen compound control ([3]; Time 7 days): +
Growth, nitrogen compound control ([3]; Time 9 days): +
Growth, nitrogen compound control ([3]; Time 13 days): +
Growth, nitrogen compound control ([3]; Time 20 days): +
neutralizing 10 ppm of glutaraldehyde [3]: effective
Growth, Neutralization of Biocides with Nitrogen Compounds ([3]; Time 0 days): −
Growth, Neutralization of Biocides with Nitrogen Compounds ([3]; Time 1 days): −
Growth, Neutralization of Biocides with Nitrogen Compounds ([3]; Time 2 days): −
Growth, Neutralization of Biocides with Nitrogen Compounds ([3]; Time 6 days): +
Growth, Neutralization of Biocides with Nitrogen Compounds ([3]; Time 7 days): +
Growth, Neutralization of Biocides with Nitrogen Compounds ([3]; Time 9 days): +
Growth, Neutralization of Biocides with Nitrogen Compounds ([3]; Time 13 days): +
Growth, Neutralization of Biocides with Nitrogen Compounds ([3]; Time 20 days): +

OO [H2O2]
microbial growth [2]: no growth
neutralizing biocides (glutaraldehyde) [2]: not effective

— US6626122B2, “Deactivatable biocides in ballast water” (Chevron U.S.A. Inc, priority 2001, dated 2003)
